Measured values published in PubChem BioAssay (NCI).
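A five-concentration, 48-hour dose response in 96-well plates underlies each endpoint, interpolated linearly between surrounding concentrations. TGI is the concentration that stops growth completely.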

What was measured:
Experiment in all cases: growth of human tumour cells (NCI), 48 h
HCT-15 colon = test system: HCT-15 colon
A498 renal = test system: A498 renal
NCI-H226 lung = test system: NCI-H226 lung
MALME-3M melanoma = test system: MALME-3M melanoma
HCC-2998 colon = test system: HCC-2998 colon
NCI-H460 lung = test system: NCI-H460 lung
OVCAR-8 ovarian = test system: OVCAR-8 ovarian
HOP-92 NSCLC = test system: HOP-92 NSCLC
M14 melanoma = test system: M14 melanoma
BT-549 breast = test system: BT-549 breast
NCI/ADR-RES ovarian = test system: NCI/ADR-RES ovarian
SF-268 CNS = test system: SF-268 CNS
SF-295 CNS = test system: SF-295 CNS
EKVX NSCLC = test system: EKVX NSCLC
MOLT-4 leukemia = test system: MOLT-4 leukemia
MCF7 breast = test system: MCF7 breast
U251 CNS = test system: U251 CNS
SNB-19 CNS = test system: SNB-19 CNS
SR leukemia = test system: SR leukemia

SMILES | TGI (HCT-15 colon) [µM] | TGI (A498 renal) [µM] | TGI (NCI-H226 lung) [µM] | TGI (MALME-3M melanoma) [µM] | TGI (HCC-2998 colon) [µM] | TGI (NCI-H460 lung) [µM] | TGI (OVCAR-8 ovarian) [µM] | TGI (HOP-92 NSCLC) [µM] | TGI (M14 melanoma) [µM] | TGI (BT-549 breast) [µM] | TGI (NCI/ADR-RES ovarian) [µM] | TGI (SF-268 CNS) [µM] | TGI (SF-295 CNS) [µM] | TGI (EKVX NSCLC) [µM] | TGI (MOLT-4 leukemia) [µM] | TGI (MCF7 breast) [µM] | TGI (U251 CNS) [µM] | TGI (SNB-19 CNS) [µM] | TGI (SR leukemia) [µM]
CC1C2(C)OC(=N)C(C#N)(C(C)O2)C1(C#N)C#N (stereo not given) | 28.8 | > 100 | > 100 | 62.3 | 50.5 | 42.8 | > 100 | 37.6 | 35.8 | 92.5 | > 100 | > 100 | > 100 | > 100 | > 100 | 61.9 | 50 |  | 
CN(C)C(=S)N/N=C(\C(=N/NC(=S)N(C)C)c1ccccn1)c1ccccn1 | 31.6 | 30.2 | 28.2 | 33.9 | 37.5 | 22.7 | 77.7 | 22.1 | 42.3 | 35.5 | 62.1 | 23.7 | 29.6 | 36.7 |  | > 48.7 | 20.4 | 31.8 | 
CC(=O)O[C@H]1CC[C@@]2(C)C(=C[C@H](c3ccc(O)cc3)[C@H]3[C@@H]4CC[C@H](OC(C)=O)[C@@]4(C)CC[C@@H]32)C1 | 24.8 | 57.8 | 40.5 | 34.2 | 36.2 | 40.6 | 33.8 | 81.5 | 41.3 | 29.4 | 31.9 | 39.3 | 77.9 | 37.4 | 45.3 | 57.4 | 48 | 47.7 | 
Cc1c(NC(=O)c2cc([N+](=O)[O-])cc([N+](=O)[O-])c2)c(=O)n(-c2ccccc2)n1C | > 100 | > 100 | > 100 | > 100 |  | > 100 | > 100 | > 100 | > 100 | > 100 | > 100 | > 100 |  |  | > 100 | > 100 | > 100 | > 100 | > 100
COc1ccc2nc3cc([N+](=O)[O-])ccc3c(Nc3ccc(S(=O)(=O)N=C(N)N)cc3)c2c1 | > 100 | > 100 | > 100 | 28.5 | 39.3 | 25 |  | 77.8 | > 100 | > 100 |  | > 100 | > 100 | > 100 | 14.7 | 96.4 | > 100 | > 100 | 4.68
